Measurements published in patent US11345713B2, “Compounds as modulators of TLR2 signaling” (Neuropore Therapies, inc., priority 2018, dated 2022).
Structures can show the parent of a compound that is named as a salt.

Assays:
[1] = molecular target: T1, human TLR2 (Pam3CSK4, TLR1/2 agonist) in HEK-Blue hTLR2 cells (Homo sapiens, UniProt O60603); experiment: HEK-Blue hTLR2 antagonism assay (SEAP reporter) with Pam3CSK4 as agonist; format: cell-based; details: 2 h compound pre-incubation, approx. 3×EC50 Pam3CSK4, 18 h, SEAP OD 655 nm, background subtracted
T1 construct: host or cells: HEK-Blue hTLR2 (HEK-293)
T1 sequence (O60603 19-784 limits assumed): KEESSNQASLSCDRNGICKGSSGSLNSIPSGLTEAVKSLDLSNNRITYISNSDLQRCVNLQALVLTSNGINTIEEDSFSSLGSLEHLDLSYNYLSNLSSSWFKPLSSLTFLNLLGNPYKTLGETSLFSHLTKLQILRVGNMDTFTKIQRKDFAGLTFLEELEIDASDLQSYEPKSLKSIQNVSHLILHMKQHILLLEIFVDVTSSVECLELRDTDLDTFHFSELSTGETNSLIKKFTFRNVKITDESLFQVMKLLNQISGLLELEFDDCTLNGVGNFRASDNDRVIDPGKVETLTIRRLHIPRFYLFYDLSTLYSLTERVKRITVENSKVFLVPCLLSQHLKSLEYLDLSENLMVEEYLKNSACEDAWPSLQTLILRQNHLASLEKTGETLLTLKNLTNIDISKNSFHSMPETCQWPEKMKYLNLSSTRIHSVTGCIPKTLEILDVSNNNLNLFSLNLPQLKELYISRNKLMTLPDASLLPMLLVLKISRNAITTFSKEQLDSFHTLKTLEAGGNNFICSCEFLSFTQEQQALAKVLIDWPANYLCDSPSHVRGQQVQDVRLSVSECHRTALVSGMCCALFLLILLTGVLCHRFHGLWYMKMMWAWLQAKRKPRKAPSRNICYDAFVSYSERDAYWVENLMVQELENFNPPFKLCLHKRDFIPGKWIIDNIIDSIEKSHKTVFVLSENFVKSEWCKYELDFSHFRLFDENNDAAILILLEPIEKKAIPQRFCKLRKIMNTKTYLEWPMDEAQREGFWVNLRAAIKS
Method: (§1) Synthetic diacylated lipoprotein (Pam2CSK4, TLR2/6 agonist) and synthetic triacylated lipoprotein (Pam3CSK4, TLR1/2 agonist) were obtained from InvivoGen and were dissolved in endotoxin-free water to a concentration 1 mg/mL, vortexed until complete solubilization, and stored in aliquots at −20° C. Prior to addition to cells, an aliquot of the dissolved ligand was vortexed shortly and then was diluted in medium to 25 ng/mL Pam2CSK4 or 1000 ng/mL Pam3CSK4. The EC50 of the agonists for each assay run was determined by using 3-fold dilutions of each agonist from the following starting concentrations: 5 ng/mL for Pam2CSK4, and 200 ng/mL for Pam3CSK4.
(§2) Test compounds were solubilized fresh to 10-20 mM stocks in DMSO and sonicated for 5-10 minutes in a water bath sonicator. Serial dilutions were prepared in DMSO, and then diluted in medium. The final concentration of DMSO used in the assay was 1%.
(§3) HEK-Blue hTLR2 reporter cells (InvivoGen) are HEK-293 cells stably expressing both the human TLR2 gene and a secreted embryonic alkaline phosphatase (SEAP) reporter construct downstream of NFκB promotor sites. HEK-Blue hTLR2 reporters were cultured according to manufacturer's protocol using Dulbecco's Modified Eagle Medium (DMEM; Gibco) containing 1× GlutaMax (Gibco), 10% heat-inactivated Fetal Bovine Serum (Gibco), Pen-Strep (50 U/mL penicillin, 50 μg/mL streptomycin, Gibco), 100 μg/mL Normocin (InvivoGen), and the selective antibiotic, 1× HEK-Blue Selection (InvivoGen). Quanti-Blue reagent (InvivoGen) for detection and quantification of secreted alkaline phosphatase was dissolved in 100 mL of endotoxin-free water, warmed to 37° C. for 30 minutes and then filtered using a 0.2 μm membrane.
(§4) On day 1, 50 μL of each test compound dilution in duplicates or a vehicle control was added to each well of a 96-well plate followed by addition of 150 μL of HEK-Blue hTLR2 cell suspension (1×10^5 cells/well) and incubated at 37° C./5% CO2 for 2 h. Next, 50 μL of an approximate 3×EC50 concentration of each agonist (Pam2CSK4 or Pam3CSK4) was added to the wells containing test compounds or the vehicle control. The plates were then incubated at 37° C./5% CO2 for 18 h. For each assay run, non-treated HEK-Blue hTLR2 cells were treated with serial dilutions of agonists to determine EC50 values for the respective run.
(§5) On day 2, secreted alkaline phosphatase (SEAP) activity was detected in cell culture supernatants. In brief, 20 μL was collected from each well and transferred to a 96-well plate. Next, 200 μL of Quanti-Blue detection reagent was added to each well. Plates were incubated at room temperature for 15 min and SEAP activity was assessed by spectrophotometer OD reading at 655 nm. […] The activities of the compounds against Pam2CSK4 and Pam3CSK4 are presented as IC50 values for the response from cells treated with agonists with the background signal subtracted.

[2] = molecular target: T2, human TLR2 (Pam2CSK4, TLR2/6 agonist) in HEK-Blue hTLR2 cells (Homo sapiens, UniProt O60603); experiment: HEK-Blue hTLR2 antagonism assay (SEAP reporter) with Pam2CSK4 as agonist; format: cell-based; details: 2 h compound pre-incubation, approx. 3×EC50 Pam2CSK4, 18 h, SEAP OD 655 nm, background subtracted
T2 construct: host or cells: HEK-Blue hTLR2 (HEK-293)
T2 sequence (O60603 19-784 limits assumed): as above
Method: as §1, §2, §3, §4, §5

Row | IC50 [1] | IC50 [2] | SMILES
1 | 0.6 µM | 0.5 µM | O=Cc1cc(/C=C/c2ccc(N3CCCC3)cc2)cc(F)c1O [Example 49a, (E)-3-fluoro-2-hydroxy-5-(4-(pyrrolidin-1-yl)styryl)benzaldehyde]
2 | 0.8 µM | 0.8 µM | O=Cc1cc(/C=C/c2ccc(N3CCCC3)cc2)cc(F)c1O [Example 49b, (E)-3-fluoro-2-hydroxy-5-(4-(pyrrolidin-1-yl)styryl)benzaldehyde]
3 | 1.7 µM | 3.2 µM | COc1ccc(/C=C/c2cc(C=O)c(O)c(OC)c2)cc1 [compound 1, (E)-2-hydroxy-3-methoxy-5-(4-methoxystyryl)benzaldehyde]
4 | 1.4 µM | 5.3 µM | COc1cc(/C=C/c2cccc(C(F)(F)F)c2)cc(C=O)c1O [compound 2, (E)-2-hydroxy-3-methoxy-5-(3-(trifluoromethyl)styryl)benzaldehyde]
5 | 3.1 µM | 4.8 µM | COc1cc(C=Cc2ccc(Cl)cc2)cc(C=O)c1O [compound 3, 5-(4-chlorostyryl)-2-hydroxy-3-methoxybenzaldehyde]
6 | 4 µM | 5.5 µM | COc1cc(/C=C/c2ccccc2)cc(C=O)c1O [compound 4, (E)-2-hydroxy-3-methoxy-5-styrylbenzaldehyde]
7 | 3.2 µM | 4 µM | COc1cc(/C=C/c2cc(F)cc(F)c2)cc(C=O)c1O [compound 5, (E)-5-(3,5-difluorostyryl)-2-hydroxy-3-methoxybenzaldehyde]
8 | 2.3 µM | 2.5 µM | COc1cc(/C=C/c2ccc(F)cc2F)cc(C=O)c1O [compound 6, (E)-5-(2,4-difluorostyryl)-2-hydroxy-3-methoxybenzaldehyde]
9 | 6.2 µM | 7.9 µM | COc1cc(/C=C/c2ccc(F)cc2)cc(C=O)c1O [compound 7, (E)-5-(4-fluorostyryl)-2-hydroxy-3-methoxybenzaldehyde]
10 | 5.5 µM | 6.3 µM | COc1cc(/C=C/c2ccc(C(F)(F)F)cc2)cc(C=O)c1O [compound 8, (E)-2-hydroxy-3-methoxy-5-(4-(trifluoromethyl)styryl)benzaldehyde]
11 | > 100 µM | > 100 µM | COc1ccc(/C=C/c2cc(OC)c(O)c(C(C)=O)c2)cc1 [compound 9, (E)-1-(2-hydroxy-3-methoxy-5-(4-methoxystyryl)phenyl)ethan-1-one]
12 | 3.8 µM | 4.6 µM | COc1ccc(/C=C/c2cc(F)c(O)c(C=O)c2)cc1 [compound 10, (E)-3-fluoro-2-hydroxy-5-(4-methoxystyryl)benzaldehyde]
13 | 1 µM | 1.1 µM | O=Cc1cc(/C=C/c2cccc(C(F)(F)F)c2)cc(F)c1O [compound 11, (E)-3-fluoro-2-hydroxy-5-(3-(trifluoromethyl)styryl)benzaldehyde]
14 | 1.3 µM | 1.4 µM | COc1cc(-c2cc3c(s2)CCN(C(=O)OC(C)(C)C)C3)cc(C=O)c1O [compound 12, tert-butyl 2-(3-formyl-4-hydroxy-5-methoxyphenyl)-6,7-dihydrothieno[3,2-c]pyridine-5(4H)-carboxylate]
15 | 3.8 µM | 4.5 µM | COc1cc(-c2cc3c(s2)CCNC3)cc(C=O)c1O [compound 13, 2-hydroxy-3-methoxy-5-(4,5,6,7-tetrahydrothieno[3,2-c]pyridin-2-yl)benzaldehyde hydrochloride]
16 | 4.2 µM | 5.7 µM | COc1cc(-c2cc3c(s2)CCN(C(=O)C2CC2)C3)cc(C=O)c1O [compound 14, 5-(5-(cyclopropanecarbonyl)-4,5,6,7-tetrahydrothieno[3,2-c]pyridin-2-yl)-2-hydroxy-3-methoxybenzaldehyde]
17 | 12.6 µM | 14.7 µM | COc1cc(-c2cc3c(s2)CCN(C(C)=O)C3)cc(C=O)c1O [compound 15, 5-(5-acetyl-4,5,6,7-tetrahydrothieno[3,2-c]pyridin-2-yl)-2-hydroxy-3-methoxybenzaldehyde]

Row | IC50 [1] | IC50 [2] | SMILES
18 | 6.9 µM | 5.9 µM | COc1cc(-c2cc3c(s2)CCN(CCF)C3)cc(C=O)c1O [compound 16, 5-(5-(2-fluoroethyl)-4,5,6,7-tetrahydrothieno[3,2-c]pyridin-2-yl)-2-hydroxy-3-methoxybenzaldehyde]
19 | 2.1 µM | 2 µM | COc1cc(-c2cc3c(s2)CCN(CC2CC2)C3)cc(C=O)c1O [compound 17, 5-(5-(cyclopropylmethyl)-4,5,6,7-tetrahydrothieno[3,2-c]pyridin-2-yl)-2-hydroxy-3-methoxybenzaldehyde]
20 | 12.2 µM | 10.4 µM | CN1CCc2sc(-c3cc(F)c(O)c(C=O)c3)cc2C1 [compound 18, 3-fluoro-2-hydroxy-5-(5-methyl-4,5,6,7-tetrahydrothieno[3,2-c]pyridin-2-yl)benzaldehyde]
21 | 38.1 µM | 26.7 µM | CC(=O)N1CCc2sc(-c3cc(F)c(O)c(C=O)c3)cc2C1 [compound 19, 5-(5-acetyl-4,5,6,7-tetrahydrothieno[3,2-c]pyridin-2-yl)-3-fluoro-2-hydroxybenzaldehyde]
22 | 10 µM | 11.2 µM | COc1cc(-c2cc3c(s2)CCN(C(C)C)C3)cc(C=O)c1O [compound 20, 2-hydroxy-5-(5-isopropyl-4,5,6,7-tetrahydrothieno[3,2-c]pyridin-2-yl)-3-methoxybenzaldehyde]
23 | 57.3 µM | 40 µM | Cc1ccc(/C=C/c2ccc(O)c(C=O)c2)cn1 [compound 21, (E)-2-hydroxy-5-(2-(6-methylpyridin-3-yl)vinyl)benzaldehyde]
24 | 6.3 µM | 17.8 µM | COc1ccc(/C=C/c2cc(C=O)c(O)cc2F)cc1 [compound 22, (E)-4-fluoro-2-hydroxy-5-(4-methoxystyryl)benzaldehyde]
25 | 11.5 µM | 11.8 µM | COc1cc(/C=C/c2ccccn2)cc(C=O)c1O [compound 23, (E)-2-hydroxy-3-methoxy-5-(2-(pyridin-2-yl)vinyl)benzaldehyde]
26 | > 100 µM | > 100 µM | O=Cc1cc(/C=C/c2ccccn2)ccc1O [compound 24, (E)-2-hydroxy-5-(2-(pyridin-2-yl)vinyl)benzaldehyde]
27 | 16.4 µM | 15.2 µM | COc1cc(/C=C/c2ccncc2)cc(C=O)c1O [compound 25, (E)-2-hydroxy-3-methoxy-5-(2-(pyridin-4-yl)vinyl)benzaldehyde]
28 | 9.3 µM | 7.4 µM | COc1cc(/C=C/c2ccc(C)nc2)cc(C=O)c1O [compound 26, (E)-2-hydroxy-3-methoxy-5-(2-(6-methylpyridin-3-yl)vinyl)benzaldehyde]
29 | 7.7 µM | 4.4 µM | COc1cc(/C=C/C2CCN(C(=O)OC(C)(C)C)CC2)cc(C=O)c1O [compound 27, tert-butyl (E)-4-(3-formyl-4-hydroxy-5-methoxystyryl)piperidine-1-carboxylate]
30 | 29.4 µM | 19.5 µM | O=Cc1cc(/C=C/c2ccccn2)cc(F)c1O [compound 28, (E)-3-fluoro-2-hydroxy-5-(2-(pyridin-2-yl)vinyl)benzaldehyde]
31 | 10 µM | 9.1 µM | Cc1ccc(/C=C/c2cc(F)c(O)c(C=O)c2)cn1 [compound 29, (E)-3-fluoro-2-hydroxy-5-(2-(6-methylpyridin-3-yl)vinyl)benzaldehyde]
32 | 18.8 µM | 20.6 µM | O=Cc1cc(/C=C/c2ccncc2)cc(F)c1O [compound 30, (E)-3-fluoro-2-hydroxy-5-(2-(pyridin-4-yl)vinyl)benzaldehyde]
33 | 6 µM | 3.8 µM | CC(C)(C)OC(=O)N1CCC(/C=C/c2cc(F)c(O)c(C=O)c2)CC1 [compound 31, tert-butyl (E)-4-(3-fluoro-5-formyl-4-hydroxystyryl)piperidine-1-carboxylate]
